According to paper PMC12136031 (Science Advances, 2025):
Read-outs that look alike come from different tables or passages of the source.

Legend:
VEGFR2 = biological target: T1, VEGFR2 (Homo sapiens, UniProt P35968); test: Safety47 Kinase Binding VEGFR2; details: Kinases, Inhibitor; for Emax: read-out: Max Response; for IC50: read-out: RC50 (IC50)
T1 construct: purchased Eurofins Panlab (Safety47 Safety Scan, contract panel)

EDNRA = biological target: T2, EDNRA (Homo sapiens, UniProt P25101); test: Safety47 Calcium Flux EDNRA; assay type: cell-based; details: for Emax: read-out: Max Response; for EC50: read-out: RC50 (EC50); for IC50: read-out: RC50 (IC50)
T2 construct: purchased Eurofins Panlab Safety47 Safety Scan
T2 sequence (P25101 21-427): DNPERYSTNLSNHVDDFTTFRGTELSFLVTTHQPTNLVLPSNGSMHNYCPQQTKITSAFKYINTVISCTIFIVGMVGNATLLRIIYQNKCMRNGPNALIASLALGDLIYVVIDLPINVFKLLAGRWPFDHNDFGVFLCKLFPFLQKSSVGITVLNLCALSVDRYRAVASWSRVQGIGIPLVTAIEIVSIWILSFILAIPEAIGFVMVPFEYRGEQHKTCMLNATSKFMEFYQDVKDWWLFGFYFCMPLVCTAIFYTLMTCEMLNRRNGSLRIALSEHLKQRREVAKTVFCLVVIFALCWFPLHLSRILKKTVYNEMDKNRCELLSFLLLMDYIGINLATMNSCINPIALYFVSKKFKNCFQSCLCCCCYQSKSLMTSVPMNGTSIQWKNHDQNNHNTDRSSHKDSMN

hERG = biological target: T3, hERG (Homo sapiens, UniProt Q12809); test: Safety47 Ion Channel hERG; assay type: cell-based; details: Blocker; for IC50: read-out: RC50 (IC50); for Emax: human, read-out: Max Response
T3 construct: purchased Eurofins Panlab (Safety47 Safety Scan, contract panel)

ADORA2A = biological target: T4, ADORA2A (Homo sapiens, UniProt P29274); test: Safety47 Calcium Flux ADORA2A; assay type: cell-based; details: for Emax: read-out: Max Response; for EC50: read-out: RC50 (EC50); for IC50: read-out: RC50 (IC50)
T4 construct: purchased Eurofins Panlab Safety47 Safety Scan

INSR = biological target: T5, INSR (Homo sapiens, UniProt P06213); test: Safety47 Kinase Binding INSR; details: Kinases, Inhibitor; for Emax: read-out: Max Response; for IC50: read-out: RC50 (IC50)
T5 construct: purchased Eurofins Panlab (Safety47 Safety Scan, contract panel)

HRH2 = biological target: T6, HRH2 (Homo sapiens, UniProt P25021); test: Safety47 cAMP HRH2; assay type: cell-based; details: for Emax: read-out: Max Response; for EC50: read-out: RC50 (EC50); for IC50: read-out: RC50 (IC50)
T6 construct: purchased Eurofins Panlab Safety47 Safety Scan

COX2 = biological target: T7, COX2 (Homo sapiens, UniProt P35354); test: Safety47 Enzymatic COX2; assay type: biochemical; details: Inhibitor; for Emax: read-out: Max Response; for IC50: read-out: RC50 (IC50)
T7 construct: purchased Eurofins Panlab (Safety47 Safety Scan, contract panel)
T7 sequence (P35354 18-604): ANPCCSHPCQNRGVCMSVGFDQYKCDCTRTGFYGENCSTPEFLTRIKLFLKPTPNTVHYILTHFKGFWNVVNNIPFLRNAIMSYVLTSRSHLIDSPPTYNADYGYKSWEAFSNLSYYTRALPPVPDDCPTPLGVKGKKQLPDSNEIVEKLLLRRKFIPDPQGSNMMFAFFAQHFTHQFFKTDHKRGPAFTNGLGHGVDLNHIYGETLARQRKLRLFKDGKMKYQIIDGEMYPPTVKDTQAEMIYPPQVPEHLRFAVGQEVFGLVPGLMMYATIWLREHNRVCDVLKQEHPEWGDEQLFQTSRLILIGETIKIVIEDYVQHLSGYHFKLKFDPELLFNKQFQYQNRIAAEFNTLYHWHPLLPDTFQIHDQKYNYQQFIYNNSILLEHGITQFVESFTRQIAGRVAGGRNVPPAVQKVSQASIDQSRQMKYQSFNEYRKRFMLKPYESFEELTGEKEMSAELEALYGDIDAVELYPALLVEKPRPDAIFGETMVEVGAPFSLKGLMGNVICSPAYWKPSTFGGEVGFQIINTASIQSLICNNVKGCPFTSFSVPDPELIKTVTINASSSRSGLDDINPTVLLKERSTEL

DCAF7-TFEB interaction = biological target: T8, DCAF7-TFEB interaction (Homo sapiens, UniProt P61962); test: Proximity ligation assay of TFEB and DCAF7 in BEAS-2B cells; assay type: cell-based
T8 construct: endogenous in cells; host or cells: BEAS-2B

TFEB = TFEB protein level / nuclear localization in BEAS-2B cells; assay type: cell-based, human; details: in the presence of DCAF7 (WT vs DCAF7 KO BEAS-2B), 18 hours
TFEB ubiquitination = test: TFEB cellular ubiquitination assay; assay type: cell-based, human; details: TFEB-EGFP immunoprecipitated
OPRK1 = biological target: T9, OPRK1 (Homo sapiens, UniProt P41145); test: Safety47 cAMP OPRK1; assay type: cell-based; details: for Emax: read-out: Max Response; for EC50: read-out: RC50 (EC50); for IC50: read-out: RC50 (IC50)
T9 construct: purchased Eurofins Panlab (Safety47 Safety Scan, contract panel)

AVPR1A = biological target: T10, AVPR1A (Homo sapiens, UniProt P37288); test: Safety47 Calcium Flux AVPR1A; assay type: cell-based; details: for Emax: read-out: Max Response; for EC50: read-out: RC50 (EC50); for IC50: read-out: RC50 (IC50)
T10 construct: purchased Eurofins Panlab Safety47 Safety Scan

DRD2S = biological target: T11, DRD2S (Homo sapiens, UniProt P14416); test: Safety47 cAMP DRD2S; assay type: cell-based; details: for Emax: read-out: Max Response; for EC50: read-out: RC50 (EC50); for IC50: read-out: RC50 (IC50)
T11 construct: purchased Eurofins Panlab Safety47 Safety Scan

DRD1 = biological target: T12, DRD1 (Homo sapiens, UniProt P21728); test: Safety47 cAMP DRD1; assay type: cell-based; details: for Emax: read-out: Max Response; for EC50: read-out: RC50 (EC50); for IC50: read-out: RC50 (IC50)
T12 construct: purchased Eurofins Panlab Safety47 Safety Scan

HTR3A = biological target: T13, HTR3A (Homo sapiens, UniProt P46098); test: Safety47 Ion Channel HTR3A; assay type: cell-based; details: for Emax: read-out: Max Response; for IC50: read-out: RC50 (IC50); for EC50: read-out: RC50 (EC50)
T13 construct: purchased Eurofins Panlab (Safety47 Safety Scan, contract panel)
T13 sequence (P46098 24-478): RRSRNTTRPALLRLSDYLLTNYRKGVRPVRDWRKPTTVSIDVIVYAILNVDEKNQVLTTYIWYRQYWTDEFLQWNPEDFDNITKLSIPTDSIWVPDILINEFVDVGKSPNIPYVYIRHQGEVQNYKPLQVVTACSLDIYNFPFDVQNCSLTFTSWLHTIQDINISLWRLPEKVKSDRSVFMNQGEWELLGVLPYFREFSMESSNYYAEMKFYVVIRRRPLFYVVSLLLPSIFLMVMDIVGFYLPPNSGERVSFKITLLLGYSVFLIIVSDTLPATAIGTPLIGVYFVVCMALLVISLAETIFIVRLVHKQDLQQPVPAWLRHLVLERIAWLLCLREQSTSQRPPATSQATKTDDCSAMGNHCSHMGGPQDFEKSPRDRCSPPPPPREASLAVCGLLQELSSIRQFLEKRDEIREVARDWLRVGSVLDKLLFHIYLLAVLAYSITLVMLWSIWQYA

T12 sequence (P21728 whole entry): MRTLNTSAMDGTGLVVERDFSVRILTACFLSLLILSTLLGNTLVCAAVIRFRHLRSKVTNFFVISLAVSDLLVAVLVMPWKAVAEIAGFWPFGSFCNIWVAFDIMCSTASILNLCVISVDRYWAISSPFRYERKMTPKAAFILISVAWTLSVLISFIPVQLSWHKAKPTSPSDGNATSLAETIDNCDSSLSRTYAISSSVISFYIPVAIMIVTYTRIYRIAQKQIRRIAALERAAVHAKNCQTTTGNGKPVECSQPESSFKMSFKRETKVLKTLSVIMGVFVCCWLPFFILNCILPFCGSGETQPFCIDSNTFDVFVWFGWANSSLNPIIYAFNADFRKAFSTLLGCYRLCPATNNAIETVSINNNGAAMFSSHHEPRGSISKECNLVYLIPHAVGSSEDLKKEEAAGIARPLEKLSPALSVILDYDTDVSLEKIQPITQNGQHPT
T11 sequence (P14416 1-414 isoform P14416-2): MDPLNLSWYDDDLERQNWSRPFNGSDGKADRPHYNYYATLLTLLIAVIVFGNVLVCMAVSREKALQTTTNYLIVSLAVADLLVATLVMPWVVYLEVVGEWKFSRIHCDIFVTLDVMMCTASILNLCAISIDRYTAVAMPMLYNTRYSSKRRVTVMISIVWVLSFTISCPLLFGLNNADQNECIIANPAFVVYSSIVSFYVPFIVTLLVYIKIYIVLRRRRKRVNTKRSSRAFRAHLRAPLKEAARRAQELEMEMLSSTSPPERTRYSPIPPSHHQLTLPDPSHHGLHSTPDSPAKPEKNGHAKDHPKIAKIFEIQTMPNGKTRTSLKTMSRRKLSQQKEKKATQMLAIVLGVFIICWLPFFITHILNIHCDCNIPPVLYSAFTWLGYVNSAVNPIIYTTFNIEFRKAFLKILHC
T3 sequence (Q12809 whole entry): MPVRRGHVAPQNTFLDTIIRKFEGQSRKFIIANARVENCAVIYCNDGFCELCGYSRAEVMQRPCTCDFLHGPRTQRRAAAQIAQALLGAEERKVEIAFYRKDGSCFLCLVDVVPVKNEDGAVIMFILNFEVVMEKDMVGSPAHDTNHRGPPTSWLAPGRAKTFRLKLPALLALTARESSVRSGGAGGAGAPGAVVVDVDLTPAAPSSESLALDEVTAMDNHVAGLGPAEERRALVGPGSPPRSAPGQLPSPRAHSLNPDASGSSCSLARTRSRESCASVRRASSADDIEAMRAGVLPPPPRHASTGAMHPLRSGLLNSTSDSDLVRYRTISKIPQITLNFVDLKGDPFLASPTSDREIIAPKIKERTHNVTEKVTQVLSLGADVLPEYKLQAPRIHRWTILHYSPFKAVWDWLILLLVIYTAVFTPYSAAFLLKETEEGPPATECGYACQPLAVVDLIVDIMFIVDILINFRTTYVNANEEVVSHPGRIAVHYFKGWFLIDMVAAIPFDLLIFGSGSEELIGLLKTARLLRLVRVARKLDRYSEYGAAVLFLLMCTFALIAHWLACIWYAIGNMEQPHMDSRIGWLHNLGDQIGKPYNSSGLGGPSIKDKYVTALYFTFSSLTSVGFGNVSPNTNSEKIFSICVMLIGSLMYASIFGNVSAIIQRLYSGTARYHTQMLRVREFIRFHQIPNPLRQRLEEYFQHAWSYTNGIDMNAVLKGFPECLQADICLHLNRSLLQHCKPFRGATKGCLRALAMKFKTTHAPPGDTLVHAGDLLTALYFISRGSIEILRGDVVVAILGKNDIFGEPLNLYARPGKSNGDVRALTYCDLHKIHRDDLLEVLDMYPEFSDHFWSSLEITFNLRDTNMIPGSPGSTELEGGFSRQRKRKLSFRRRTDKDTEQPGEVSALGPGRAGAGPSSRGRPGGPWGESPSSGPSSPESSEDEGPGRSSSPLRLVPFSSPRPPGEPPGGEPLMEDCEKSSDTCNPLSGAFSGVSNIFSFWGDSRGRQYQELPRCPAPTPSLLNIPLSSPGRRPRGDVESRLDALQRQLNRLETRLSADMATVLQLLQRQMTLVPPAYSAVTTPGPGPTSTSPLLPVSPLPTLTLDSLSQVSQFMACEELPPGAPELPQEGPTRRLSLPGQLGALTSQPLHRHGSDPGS
T5 sequence (P06213 28-1382, species assumed): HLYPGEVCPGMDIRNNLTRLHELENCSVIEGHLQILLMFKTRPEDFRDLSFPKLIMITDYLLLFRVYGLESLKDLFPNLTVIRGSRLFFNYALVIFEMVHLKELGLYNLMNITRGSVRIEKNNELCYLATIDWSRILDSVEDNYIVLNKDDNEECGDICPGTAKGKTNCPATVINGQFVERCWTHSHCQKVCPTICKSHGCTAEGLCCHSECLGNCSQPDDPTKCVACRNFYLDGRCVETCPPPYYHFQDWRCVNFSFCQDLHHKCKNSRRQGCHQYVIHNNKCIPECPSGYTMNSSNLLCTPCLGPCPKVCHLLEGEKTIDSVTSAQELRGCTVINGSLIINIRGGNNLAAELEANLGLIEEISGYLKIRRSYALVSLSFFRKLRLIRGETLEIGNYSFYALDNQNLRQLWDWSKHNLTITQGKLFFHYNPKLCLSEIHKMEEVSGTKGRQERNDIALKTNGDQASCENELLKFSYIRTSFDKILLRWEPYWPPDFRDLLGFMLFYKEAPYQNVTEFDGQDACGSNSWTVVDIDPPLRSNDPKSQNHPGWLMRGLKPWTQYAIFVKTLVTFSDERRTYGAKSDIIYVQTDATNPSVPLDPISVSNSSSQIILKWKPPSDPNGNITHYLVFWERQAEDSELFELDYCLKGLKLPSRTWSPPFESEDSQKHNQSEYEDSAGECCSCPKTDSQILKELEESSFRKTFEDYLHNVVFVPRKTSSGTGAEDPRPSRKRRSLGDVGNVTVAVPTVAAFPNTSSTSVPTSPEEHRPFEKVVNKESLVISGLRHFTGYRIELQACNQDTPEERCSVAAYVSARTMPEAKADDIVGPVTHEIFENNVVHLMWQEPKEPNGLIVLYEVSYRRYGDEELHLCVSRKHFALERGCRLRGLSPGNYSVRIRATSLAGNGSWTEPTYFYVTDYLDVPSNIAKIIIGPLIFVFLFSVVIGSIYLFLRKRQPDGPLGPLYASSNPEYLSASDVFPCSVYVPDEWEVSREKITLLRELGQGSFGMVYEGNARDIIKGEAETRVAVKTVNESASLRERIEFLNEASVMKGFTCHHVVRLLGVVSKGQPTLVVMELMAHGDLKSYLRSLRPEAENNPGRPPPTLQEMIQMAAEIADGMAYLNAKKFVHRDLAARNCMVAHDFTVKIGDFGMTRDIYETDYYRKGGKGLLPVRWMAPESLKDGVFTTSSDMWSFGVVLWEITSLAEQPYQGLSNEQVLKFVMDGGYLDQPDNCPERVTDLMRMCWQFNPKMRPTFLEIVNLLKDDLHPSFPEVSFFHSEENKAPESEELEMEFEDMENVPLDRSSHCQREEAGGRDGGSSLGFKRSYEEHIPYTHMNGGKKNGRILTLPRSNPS
T4 sequence (P29274 whole entry): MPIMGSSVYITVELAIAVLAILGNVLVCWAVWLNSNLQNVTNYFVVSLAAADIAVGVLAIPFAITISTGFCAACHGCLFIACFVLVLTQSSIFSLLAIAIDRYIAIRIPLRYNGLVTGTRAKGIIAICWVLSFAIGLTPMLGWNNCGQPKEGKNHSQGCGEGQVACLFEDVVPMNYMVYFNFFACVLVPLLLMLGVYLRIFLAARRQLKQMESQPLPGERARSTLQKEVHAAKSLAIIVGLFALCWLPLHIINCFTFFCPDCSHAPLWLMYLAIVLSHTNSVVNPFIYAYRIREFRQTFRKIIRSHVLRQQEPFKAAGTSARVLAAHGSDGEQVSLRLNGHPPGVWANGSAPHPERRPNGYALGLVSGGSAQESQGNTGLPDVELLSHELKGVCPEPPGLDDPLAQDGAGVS
T9 sequence (P41145 whole entry, species assumed): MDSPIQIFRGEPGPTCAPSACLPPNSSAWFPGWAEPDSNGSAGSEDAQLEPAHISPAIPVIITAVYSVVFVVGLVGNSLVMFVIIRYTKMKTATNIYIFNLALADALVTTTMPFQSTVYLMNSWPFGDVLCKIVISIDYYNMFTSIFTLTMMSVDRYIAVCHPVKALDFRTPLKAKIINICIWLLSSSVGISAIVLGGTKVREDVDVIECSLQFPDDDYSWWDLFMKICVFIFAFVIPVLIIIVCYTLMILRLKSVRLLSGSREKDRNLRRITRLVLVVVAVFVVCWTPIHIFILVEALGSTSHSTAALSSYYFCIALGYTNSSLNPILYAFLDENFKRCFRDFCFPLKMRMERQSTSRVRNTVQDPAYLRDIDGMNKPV
T10 sequence (P37288 whole entry): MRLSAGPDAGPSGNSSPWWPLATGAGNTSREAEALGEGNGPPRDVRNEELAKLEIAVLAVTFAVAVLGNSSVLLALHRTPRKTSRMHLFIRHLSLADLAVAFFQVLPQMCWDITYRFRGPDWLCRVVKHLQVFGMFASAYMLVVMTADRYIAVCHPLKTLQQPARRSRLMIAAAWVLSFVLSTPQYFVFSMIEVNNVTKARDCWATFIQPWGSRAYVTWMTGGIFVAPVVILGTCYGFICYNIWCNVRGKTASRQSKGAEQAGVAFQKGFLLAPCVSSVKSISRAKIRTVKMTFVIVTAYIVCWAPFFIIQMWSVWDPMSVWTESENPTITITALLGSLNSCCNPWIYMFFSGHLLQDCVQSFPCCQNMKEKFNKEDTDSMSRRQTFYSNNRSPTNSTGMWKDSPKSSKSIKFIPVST
T6 sequence (P25021 whole entry): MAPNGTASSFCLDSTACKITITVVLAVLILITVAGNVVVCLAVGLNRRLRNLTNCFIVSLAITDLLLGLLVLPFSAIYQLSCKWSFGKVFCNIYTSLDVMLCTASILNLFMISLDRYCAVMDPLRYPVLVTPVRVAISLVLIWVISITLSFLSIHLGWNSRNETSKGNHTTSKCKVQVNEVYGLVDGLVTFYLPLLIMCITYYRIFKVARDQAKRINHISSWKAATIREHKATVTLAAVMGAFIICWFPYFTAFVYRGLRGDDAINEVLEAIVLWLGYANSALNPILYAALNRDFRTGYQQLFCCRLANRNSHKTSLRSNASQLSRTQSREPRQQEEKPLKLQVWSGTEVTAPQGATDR

SMILES: Cl.Fc1cc(Nc2nc(-c3ccncc3)nc3ncccc23)cc2cc[nH]c12 [BC18813, N-(7-fluoro-1H-indol-5-yl)-2-pyridin-4-ylpyrido[2,3-d]pyrimidin-4-amine hydrochloride]
- Emax (VEGFR2): 0.27%
- IC50 (VEGFR2): > 10 µM
- Emax (EDNRA; Agonist): 5.5%
- EC50 (EDNRA; Agonist): > 10 µM
- Emax (EDNRA; Antagonist): 2.32%
- IC50 (EDNRA; Antagonist): > 10 µM
- IC50 (hERG): > 10 µM
- Emax (hERG): 4.86%
- Emax (ADORA2A; Agonist): 1.05%
- EC50 (ADORA2A; Agonist): > 10 µM
- Emax (ADORA2A; Antagonist): 37.7%
- IC50 (ADORA2A; Antagonist): > 10 µM
- Emax (INSR): 0%
- IC50 (INSR): > 10 µM
- Emax (HRH2; Agonist): 0%
- EC50 (HRH2; Agonist): > 10 µM
- Emax (HRH2; Antagonist): 45.8%
- IC50 (HRH2; Antagonist): > 10 µM
- Emax (COX2): 17.9%
- IC50 (COX2): > 10 µM
- Nuclear protein-protein interaction between DCAF7 and TFEB (PLA) (DCAF7-TFEB interaction): largely reduced
- TFEB protein level (TFEB): increased
- TFEB ubiquitination (TFEB ubiquitination): decreased
- Emax (OPRK1; Agonist): 24.3%
- EC50 (OPRK1; Agonist): > 10 µM
- Emax (OPRK1; Antagonist): 0%
- IC50 (OPRK1; Antagonist): > 10 µM
- Emax (AVPR1A; Agonist): 1.07%
- EC50 (AVPR1A; Agonist): > 10 µM
- Emax (AVPR1A; Antagonist): 16%
- IC50 (AVPR1A; Antagonist): > 10 µM
- Emax (DRD2S; Agonist): 13.5%
- EC50 (DRD2S; Agonist): > 10 µM
- Emax (DRD2S; Antagonist): 5.93%
- IC50 (DRD2S; Antagonist): > 10 µM
- Emax (DRD1; Agonist): 0%
- EC50 (DRD1; Agonist): > 10 µM
- Curve Bottom (DRD1; Antagonist): 0
- Curve Top (DRD1; Antagonist): 100
- Hill (DRD1; Antagonist): 1.19
- Emax (DRD1; Antagonist): 50.1%
- IC50 (DRD1; Antagonist): 9.45 µM
- Emax (HTR3A; Blocker): 0%
- IC50 (HTR3A; Blocker): > 10 µM
- Emax (HTR3A; Opener): 0.03%
- EC50 (HTR3A; Opener): > 10 µM

SMILES: Cl.c1ccc2c(Nc3ccc4[nH]ccc4c3)nc(-c3ccncc3)nc2c1 [BC18630, N-1H-indol-5-yl-2-pyridin-4-ylquinazolin-4-amine hydrochloride]
- Emax (VEGFR2): 13.7%
- IC50 (VEGFR2): > 10 µM
- Emax (EDNRA; Agonist): 0%
- EC50 (EDNRA; Agonist): > 10 µM
- Emax (EDNRA; Antagonist): 3.72%
- IC50 (EDNRA; Antagonist): > 10 µM
- IC50 (hERG): > 10 µM
- Emax (hERG): 6.14%
- Emax (ADORA2A; Agonist): 3.09%
- EC50 (ADORA2A; Agonist): > 10 µM
- Emax (ADORA2A; Antagonist): 29.8%
- IC50 (ADORA2A; Antagonist): > 10 µM
- Emax (INSR): 15.6%
- IC50 (INSR): > 10 µM
- Emax (HRH2; Agonist): 0%
- EC50 (HRH2; Agonist): > 10 µM
- Curve Bottom (HRH2; Antagonist): -8.58
- Curve Top (HRH2; Antagonist): 73.68
- Hill (HRH2; Antagonist): 1
- Emax (HRH2; Antagonist): 43.2%
- IC50 (HRH2; Antagonist): 6.01 µM
- Emax (COX2): 8.53%
- IC50 (COX2): > 10 µM
- Nuclear protein-protein interaction between DCAF7 and TFEB (PLA) (DCAF7-TFEB interaction): largely reduced
- TFEB protein level (TFEB): increased
- TFEB ubiquitination (TFEB ubiquitination): decreased
- Emax (OPRK1; Agonist): 8.98%
- EC50 (OPRK1; Agonist): > 10 µM
- Emax (OPRK1; Antagonist): 1%
- IC50 (OPRK1; Antagonist): > 10 µM
- Emax (AVPR1A; Agonist): 8.97%
- EC50 (AVPR1A; Agonist): > 10 µM
- Emax (AVPR1A; Antagonist): 15.9%
- IC50 (AVPR1A; Antagonist): > 10 µM
- Emax (DRD2S; Agonist): 0.87%
- EC50 (DRD2S; Agonist): > 10 µM
- Emax (DRD2S; Antagonist): 24.3%
- IC50 (DRD2S; Antagonist): > 10 µM
- Emax (DRD1; Agonist): 0%
- EC50 (DRD1; Agonist): > 10 µM
- Curve Bottom (DRD1; Antagonist): 0
- Curve Top (DRD1; Antagonist): 100
- Hill (DRD1; Antagonist): 1.45
- Emax (DRD1; Antagonist): 55.1%
- IC50 (DRD1; Antagonist): 8.45 µM
- Curve Bottom (HTR3A; Blocker): 0
- Curve Top (HTR3A; Blocker): 100
- Hill (HTR3A; Blocker): 1.9
- Emax (HTR3A; Blocker): 69.9%
- IC50 (HTR3A; Blocker): 6.43 µM
- Emax (HTR3A; Opener): 0%
- EC50 (HTR3A; Opener): > 10 µM
